Key:
Format in all cases: functional, cell-based
[1] = test system: Melanocortin receptor 4 (Homo sapiens), P32245 [L106P]; assay: Agonist activity at human melanocortin-4 receptor L106P mutant expressed in HEK293 cells co-transfected with CRE/beta-galactosidase reporter gene assessed as stimulatory response at 10 uM after 6 hrs
Melanocortin receptor 3 = Melanocortin receptor 3 (Mus musculus, UniProt P33033); assay: Agonist activity at mouse melanocortin-3 receptor expressed in HEK293 cells co-transfected with CRE/beta-galactosidase reporter gene assessed as stimulatory response after 6 hrs
[2] = molecular target: Melanocyte-stimulating hormone receptor (Mus musculus, UniProt Q01727); assay: Agonist activity at mouse melanocortin-1 receptor expressed in HEK293 cells co-transfected with CRE/beta-galactosidase reporter gene assessed as stimulatory response after 6 hrs
Melanocortin receptor 4 [3] = molecular target: Melanocortin receptor 4 (Homo sapiens, UniProt P32245, C271R); assay: Agonist activity at human melanocortin-4 receptor C271R mutant expressed in HEK293 cells co-transfected with CRE/beta-galactosidase reporter gene assessed as stimulatory response after 6 hrs
Melanocortin receptor 4 [4] = molecular target: Melanocortin receptor 4 (Homo sapiens, UniProt P32245, C271Y); assay: Agonist activity at human melanocortin-4 receptor C271Y mutant expressed in HEK293 cells co-transfected with CRE/beta-galactosidase reporter gene assessed as stimulatory response after 6 hrs
Melanocortin receptor 4 [5] = molecular target: Melanocortin receptor 4 (Homo sapiens, UniProt P32245, L106P); assay: Agonist activity at human melanocortin-4 receptor L106P mutant expressed in HEK293 cells co-transfected with CRE/beta-galactosidase reporter gene assessed as stimulatory response after 6 hrs
Melanocortin receptor 4 [6] = molecular target: Melanocortin receptor 4 (Homo sapiens, UniProt P32245, I69T); assay: Agonist activity at human melanocortin-4 receptor I69T mutant expressed in HEK293 cells co-transfected with CRE/beta-galactosidase reporter gene assessed as stimulatory response after 6 hrs
Melanocortin receptor 4 [7] = molecular target: Melanocortin receptor 4 (Mus musculus, UniProt P56450); assay: Agonist activity at mouse melanocortin-4 receptor expressed in HEK293 cells co-transfected with CRE/beta-galactosidase reporter gene assessed as stimulatory response after 6 hrs
Melanocortin receptor 4 [8] = molecular target: T1, Melanocortin receptor 4 (Homo sapiens, UniProt P32245); assay: Agonist activity at wild type human melanocortin-4 receptor expressed in HEK293 cells co-transfected with CRE/beta-galactosidase reporter gene assessed as stimulatory response after 6 hrs
Melanocortin receptor 4 [9] = molecular target: Melanocortin receptor 4 (Homo sapiens, UniProt P32245, I102S); assay: Agonist activity at human melanocortin-4 receptor I102S mutant expressed in HEK293 cells co-transfected with CRE/beta-galactosidase reporter gene assessed as stimulatory response after 6 hrs
Melanocortin receptor 4 [10] = molecular target: Melanocortin receptor 4 (Homo sapiens, UniProt P32245, A219V); assay: Agonist activity at human melanocortin-4 receptor A219V mutant expressed in HEK293 cells co-transfected with CRE/beta-galactosidase reporter gene assessed as stimulatory response after 6 hrs
Melanocortin receptor 5 = Melanocortin receptor 5 (Mus musculus, UniProt P41149); assay: Agonist activity at mouse melanocortin-5 receptor expressed in HEK293 cells co-transfected with CRE/beta-galactosidase reporter gene assessed as stimulatory response after 6 hrs
[11] = test system: Melanocortin receptor 4 (Homo sapiens), P32245 [L106P]; assay: Agonist activity at human melanocortin-4 receptor L106P mutant expressed in HEK293 cells co-transfected with CRE/beta-galactosidase reporter gene assessed as stimulatory response at 100 uM after 6 hrs
Melanocortin receptor 4 [12] = molecular target: T1, Melanocortin receptor 4; assay: Agonist activity at wild type human melanocortin-4 receptor expressed in HEK293 cells co-transfected with CRE/beta-galactosidase reporter gene assessed as stimulatory response at 100 uM after 6 hrs

EC50 (Melanocortin receptor 3) [nM] | SMILES | EC50 [2] [nM] | EC50 (Melanocortin receptor 4 [4]) [nM] | EC50 (Melanocortin receptor 4 [5]) [nM] | EC50 (Melanocortin receptor 4 [6]) [nM] | EC50 (Melanocortin receptor 4 [7]) [nM] | EC50 (Melanocortin receptor 4 [8]) [nM] | EC50 (Melanocortin receptor 4 [9]) [nM] | EC50 (Melanocortin receptor 4 [10]) [nM] | EC50 (Melanocortin receptor 5) [nM] | further results
– | CC(=O)N1Cc2ccccc2CC1C(=O)N[C@H](Cc1ccc(I)cc1)C(=O)N1Cc2ccccc2CC1C(=O)N[C@@H](Cc1ccc(I)cc1)C(N)=O (some centres undefined) | – | – | – | – | – | – | – | – | – | Activity [1]: 70%
47 | CC(=O)N[C@@H](CCCNC(=N)N)C(=O)N[C@H](Cc1ccc(I)cc1)C(=O)N1Cc2ccccc2CC1C(=O)N[C@H](Cc1ccc([N+](=O)[O-])cc1)C(N)=O (some centres undefined) | – | – | – | – | – | – | – | – | – | –
35 | CC(=O)N[C@@H](Cc1cnc[nH]1)C(=O)N[C@H](Cc1ccc(I)cc1)C(=O)N1Cc2ccccc2CC1C(=O)N[C@H](Cc1ccc([N+](=O)[O-])cc1)C(N)=O (some centres undefined) | – | – | – | – | – | – | – | – | – | –
– | CC(=O)N[C@@H](Cc1c[nH]cn1)C(=O)N[C@H](Cc1ccc(I)cc1)C(=O)N1Cc2ccccc2C[C@H]1C(=O)N[C@H](Cc1ccc([N+](=O)[O-])cc1)C(N)=O | 2.9 | 190 | 10 | 3.8 | 2.4 | 0.24 | 14 | 4.5 | 0.84 | EC50 (Melanocortin receptor 4 [3]): 295 nM
– | CC(=O)N1Cc2ccccc2CC1C(=O)N[C@H](Cc1ccc(I)cc1)C(=O)N1Cc2ccccc2CC1C(=O)N1Cc2ccccc2CC1C(N)=O (some centres undefined) | – | – | – | – | – | – | – | – | – | Activity [11]: 50%; Activity (Melanocortin receptor 4 [12]): 50%
– | CC(=O)N[C@@H](CCCNC(=N)N)C(=O)N[C@H](Cc1ccc(I)cc1)C(=O)N1Cc2ccccc2C[C@H]1C(=O)N[C@H](Cc1ccc([N+](=O)[O-])cc1)C(N)=O | 2.7 | 19700 | 2.6 | 4.1 | 2.7 | 0.26 | 2.9 | 6.1 | 1.1 | –
– | CC(=O)N[C@@H](CCCNC(=N)N)C(=O)N[C@H](Cc1ccc(I)cc1)C(=O)N[C@@H](CCCNC(=N)N)C(=O)N[C@@H](Cc1ccc(I)cc1)C(N)=O | – | > 100000 | 4.4 | – | – | – | 3.5 | – | – | –
– | CC(=O)N[C@@H](CCCNC(=N)N)C(=O)N[C@H](Cc1ccc(Cl)cc1)C(=O)N1Cc2ccccc2C[C@H]1C(=O)N[C@H](Cc1ccc([N+](=O)[O-])cc1)C(N)=O | 22 | 470 | 3.4 | 5.2 | 7.6 | 0.21 | 4.4 | 4.2 | 1 | EC50 (Melanocortin receptor 4 [3]): 3390 nM
– | CC(=O)N[C@@H](Cc1c[nH]cn1)C(=O)N[C@H](Cc1ccc(Cl)cc1)C(=O)N1Cc2ccccc2C[C@H]1C(=O)N[C@H](Cc1ccc([N+](=O)[O-])cc1)C(N)=O | 4 | 82 | 15 | 4.3 | 5.2 | 0.4 | 3 | 2.8 | 0.63 | EC50 (Melanocortin receptor 4 [3]): 130 nM
55 | CC(=O)N[C@@H](Cc1cnc[nH]1)C(=O)N[C@H](Cc1ccc(Cl)cc1)C(=O)N1Cc2ccccc2CC1C(=O)N[C@H](Cc1ccc([N+](=O)[O-])cc1)C(N)=O (some centres undefined) | – | – | – | – | – | – | – | – | – | –
94 | CC(=O)N[C@@H](CCCNC(=N)N)C(=O)N[C@H](Cc1ccc(Cl)cc1)C(=O)N1Cc2ccccc2CC1C(=O)N[C@H](Cc1ccc([N+](=O)[O-])cc1)C(N)=O (some centres undefined) | – | – | – | – | – | – | – | – | – | –

From ChEMBL document CHEMBL3286334, “Identification of tetrapeptides from a mixture based positional scanning library that can restore nM full agonist function of the L106P, I69T, I102S, A219V, C271Y, and C271R human melanocortin-4 polymorphic receptors (hMC4Rs)” (J Med Chem, 2014)
